From patent US9567347B2, “Use of small molecule inhibitors targeting the interaction between RAC GTPase and p67(phox)” (CHILDREN'S HOSPITAL MEDICAL CENTER, priority 2012, dated 2017)

Key:
[1] = tested on: primary murine neutrophils; test: H2-DCFDA FACS ROS production assay in primary murine neutrophils; format: cell-based, mouse; conditions: 10 μM and 20 μM
Protocol: HL-60 cells were propagated in RPMI 1640 medium containing 10% heat inactivated fetal bovine serum, 2 mM L-glutamine, 100 U/mL penicillin/streptomycin at 37° C. in air containing 5% CO2. For differentiation, HL-60 cells were cultured in 1.3% dimethyl sulfoxide (DMSO) as previously described (Servant, G., et al. (1999) Mol Biol Cell 10, 1163-1178, hereby incorporated by reference in its entirety). Primary murine neutrophils were isolated from C57Bl/6 mouse bone marrow according to a published protocol (Filippi et al., (2004) Nat Immunol 5, 744-751, hereby incorporated by reference in its entirety) using a discontinuous Percoll (Pharmacia) gradient and were utilized immediately in experiments. […]
Cells (5×10^5) were harvested and processed for Annexin V/7AAD staining according to manufacturer's protocol (Becton Dickinson). Flow cytometry data were acquired on a FACS Canto bench-top flow cytometer (Becton Dickinson) and the cell cycle distributions were determined by […] using Flo-Jo software (Bosco et al (2010) Blood 115, 3320-3328, hereby incorporated by reference in its entirety). […] Cells were then stimulated with 10 μM fMLP (Sigma), 1 mM CaCl2, and 1.5 mM MgCl2 for 15 minutes prior to wash and FACS analysis for mean fluorescence intensity. […]

[2] = biological target: T1, NOX4 (Homo sapiens, UniProt Q9NPH5); test: NOX4 mediated ROS production, luminol chemiluminescence with HRP; format: cell-based, mouse; conditions: 10 μM, 30 min
T1 construct: expressed in transfected cells; host or cells: primary mouse neutrophils (C57Bl/6 bone marrow), Amaxa nucleofection
T1 sequence (Q9NPH5 1-578): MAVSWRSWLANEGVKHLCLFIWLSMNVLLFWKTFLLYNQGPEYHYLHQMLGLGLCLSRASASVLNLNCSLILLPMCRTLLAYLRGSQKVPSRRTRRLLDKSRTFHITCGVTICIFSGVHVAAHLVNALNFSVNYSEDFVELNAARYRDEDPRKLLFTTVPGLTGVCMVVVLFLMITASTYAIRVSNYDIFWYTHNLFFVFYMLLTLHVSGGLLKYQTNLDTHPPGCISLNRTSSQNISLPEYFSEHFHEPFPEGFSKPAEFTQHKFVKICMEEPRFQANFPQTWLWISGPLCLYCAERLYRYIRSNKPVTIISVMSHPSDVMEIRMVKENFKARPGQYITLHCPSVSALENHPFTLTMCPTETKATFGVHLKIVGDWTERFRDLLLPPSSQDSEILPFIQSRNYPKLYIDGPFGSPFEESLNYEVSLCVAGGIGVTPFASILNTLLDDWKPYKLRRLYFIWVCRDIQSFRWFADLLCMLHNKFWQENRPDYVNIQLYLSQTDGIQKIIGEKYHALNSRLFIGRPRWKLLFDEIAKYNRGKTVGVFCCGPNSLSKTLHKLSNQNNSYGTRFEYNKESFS
T1 sequence (Q61462 1-192 partner): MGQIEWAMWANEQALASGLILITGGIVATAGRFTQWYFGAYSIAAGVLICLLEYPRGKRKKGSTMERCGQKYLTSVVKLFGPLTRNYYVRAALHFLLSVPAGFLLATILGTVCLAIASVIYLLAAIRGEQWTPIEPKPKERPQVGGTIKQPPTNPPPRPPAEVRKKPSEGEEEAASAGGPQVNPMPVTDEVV
Protocol: Primary mouse neutrophils were suspended in 100 μl NucleofectorR solution with 10 μg plasmid pCDNA3-NOX4 encoding NOX4 or mock vector. Cells were transfected using a Cell Line V NucleofactorTMR kit (Amaxa Biosystem, Amaxa Inc.) and the NucleofectorTM program Y-001. Cells were recovered at 37° C. for 2 hours and subjected to the luminol chemiluminescence assay using 10 μM L012 and HRP (0.005 U·mL^−1) to record ROS produced by NOX4 expression.
Phox-I1 was then applied to primary murine neutrophils expressing the constitutively active NOX4. […] To further rule out that Phox-I1 and Phox-I2 may simply act as scavengers of ROS, dHL-60 cells were pre-stimulated with fMLP for 30 min prior to treatment with Phox-I1 or Phox-I2.

COc1ccc2c(c1)C1C=C(c3ccccc3)NN1C(c1cccc([N+](=O)[O-])c1)O2 (centres unmarked) [Phox-I1]
inhibition of fMLP-stimulated ROS production [1]: able to inhibit ROS production nearly as well as DPI at 100 μM concentration | NOX4 ROS production [2]: unresponsive
